# Measured values as given in patent US20240300975A1, “DIMETHYL-SUBSTITUTED THIAZOLOLACTAM COMPOUND AND USE THEREOF” (D3 Bio (Wuxi) Co., Ltd., priority 2021, published 2024).
# Read-outs that look alike come from different tables or passages of the source.
# Assays:
# [1] = In vivo PK study in beagle dogs; details: male beagle dogs
# Experimental: Male beagle dogs were used as assay animals. After a single administration, the plasma concentration of the compound was measured and the pharmacokinetic behavior was evaluated.
# (§1) Five healthy adult male beagle dogs were selected, wherein 2 were in an intravenous injection group, and 3 were in an oral group. The vehicle in the intravenous injection group was 5% DMSO+95% (20% HP-β-CD). The compound to be assayed was mixed with an appropriate amount of vehicle for intravenous injection, and dissolved with stirring to prepare a clear solution of 0.4 mg/mL. The clear solution was filtered by a microporous membrane, and then ready for use. The vehicle in the oral group was 5% DMSO+95% (20% HP-β-CD). The compound to be assayed was mixed with the vehicle, and dissolved with stirring to prepare a solution of 0.3 mg/mL. Cynomolgus monkeys were administered 1 mg/kg intravenously or 3 mg/kg orally, and then whole blood was collected for a certain period. Plasma was prepared. The drug concentration was analyzed by LC-MS/MS method, and the pharmacokinetic parameters were calculated by Phoenix WinNonlin software (Pharsight, USA).
# [2] = Solubility study (HPLC-UV, 24 h shaking); assay type: physicochemical; details: 25 °C, aqueous buffer, kinetic from dmso stock, 2% DMSO, max 200 μM
# Experimental: The solubility of a compound was determined to evaluate the solubility property of the compound.
# • 1) Buffer A (pH 2.0): 50 mM phosphate buffer, pH 2.0; Buffer B (pH 6.5): 50 mM phosphate buffer, pH 6.5; Buffer C (pH 7.4): 50 mM phosphate buffer, pH 7.4; • 2) Preparation of standard solution: • a) 50% acetonitrile solution and 50% buffer solution were mixed to obtain a diluent; • b) 10 mM (10 μL/compound) compound stock solution was added to the diluent (490 μL/compound) to obtain 200 μM detection standard solution; • c) The 200 μM UV detection standard solution was diluted with 10-fold and 200-fold volume of diluents to obtain 20 μM and 1 μM UV standard solutions, respectively; • d) 1 μM, 20 μM, and 200 μM UV standard solutions were used as standard solutions for solubility assay.
# • a) The compound was dissolved in DMSO to prepare a 10 mM stock solution. […] The pH of the corresponding solubility solutions was 2.0, 6.5 and 7.4, respectively. The theoretical maximum concentration of the assay compound is 200 μM with 2% DMSO; • c) The plate was shaken in a shaker at room temperature (25±2° C.) at 600 rpm for 24 hours; • d) 200 μL of the solution was pipetted from the 96-well plate, filtered with suction by a vacuum suction filtration device, and transferred into a new 96-well plate as an assay sample; • e) The compound concentration was determined using HPLC-UV.
# • f) Three UV standard solutions from low concentration to high concentration (1 μM, 20 μM, 200 μM) were injected into HPLC, and then the assay sample of the compound to be assayed was injected; • g) The UV chromatographic peaks were integrated, and the solubility of the sample was calculated.
# [3] = In vivo PK study in cynomolgus monkeys; details: male cynomolgus monkeys
# Experimental: Male cynomolgus monkeys were used as assay animals. After a single administration, the plasma concentration of the compound was measured and the pharmacokinetic behavior was evaluated.
# as §1, with “adult male cynomolgus monkeys were selected,” for “adult male beagle dogs were selected,”, “wherein 2 animals were in” for “wherein 2 were in”, “and 3 animals were in” for “and 3 were in”
compound,measurement,setting,value
Cc1cccc(CN2C(=O)c3nc(-c4nc(Nc5ccnn5C)ncc4C)sc3C2(C)C)n1 [WX001],clearance,"[1]; dog, plasma, iv, 1 mg/kg intravenously",19 mL/min/kg
same,Vd,"[1]; dog, plasma, iv, 1 mg/kg intravenously, read-out: Vdss",1.94 L/kg
same,bioavailability,"[1]; dog, plasma, oral, 1 mg/kg intravenously / 3 mg/kg orally, read-out: F % (oral bioavailability)",52%
same,half-life,"[1]; dog, plasma, single administration",1.09 h
same,Cmax,"[1]; dog, po, 3 mg/kg orally, plasma",1230 nM
same,Oral DNAUC (AUCPO/Dose),[1]; 3 mg/kg orally,1099.27 nM · h/mpk
same,solubility at 24 h,"[2]; 50 mM phosphate buffer pH 2.0, 25±2° C., read-out: Solubility pH = 2.0",> 200 µM
same,solubility at 24 h,"[2]; 50 mM phosphate buffer pH 6.5, 25±2° C., read-out: Solubility pH = 6.5",6.2 µM
same,solubility at 24 h,"[2]; 50 mM phosphate buffer pH 7.4, 25±2° C., read-out: Solubility pH = 7.4",7.08 µM
same,clearance,"[3]; cynomolgus monkey, plasma, iv, 1 mg/kg intravenously",7.9 mL/min/kg
same,Vd,"[3]; cynomolgus monkey, plasma, iv, 1 mg/kg intravenously, read-out: Vdss",1.19 L/kg
same,bioavailability,"[3]; cynomolgus monkey, plasma, oral, 1 mg/kg intravenously / 3 mg/kg orally, read-out: F % (oral bioavailability)",41%
same,half-life,"[3]; cynomolgus monkey, plasma, single administration",2 h
same,Cmax,"[3]; cynomolgus monkey, po, 3 mg/kg orally, plasma",1250 nM
same,Oral DNAUC (AUCPO/Dose),[3]; 3 mg/kg orally,1995.93 nM · h/mpk
